This experiment has as its system post-menopausal women experiencing moderate to severe vasomotor symptoms. As to the kind of experiment: Efficacy assessments in the Phase 1b/2 study. Format: in vivo, human. The conditions noted are these: hard gelatin drug product, 150 mg once daily (three 50 mg capsules), doses tested 50-300 mg for 14 days. The method, then: There were 13 or 15 subjects per dose group.
Repeat once-a-day dosing of 150 mg Compound A gave a geometric mean exposure AUC0-24 5164 ng.hr/mL of the drug at Day 14.

`Cc1cc(F)ccc1-c1cc(N2C[C@H]3COCCN3C[C@H]2CO)ncc1N(C)C(=O)C(C)(C)c1cc(C(F)(F)F)cc(C(F)(F)F)c1` [Compound A, 2-[3,5-Bis(trifluoromethyl)phenyl]-N-{4-(4-fluoro-2-methylphenyl)-6-[(7S,9aS)-7-(hydroxymethyl)hexahydropyrazino[2,1-c][1,4]oxazin-8(1H)-yl]-3-pyridinyl}-N,2-dimethylpropanamide]: the efficacy assessments entry is “maximum efficacy”.

For the origin of these results see patent US12264164B2, “Method of treatment of symptoms of menopause” (KaNDy Therapeutics Limited, priority 2018, dated 2025).
